Data on 30 compounds can be found in US10167279B2 (NOVARTIS AG, priority 2014, dated 2019).

Chain of C-Raf FL (P04049 whole entry Y340E/Y341E): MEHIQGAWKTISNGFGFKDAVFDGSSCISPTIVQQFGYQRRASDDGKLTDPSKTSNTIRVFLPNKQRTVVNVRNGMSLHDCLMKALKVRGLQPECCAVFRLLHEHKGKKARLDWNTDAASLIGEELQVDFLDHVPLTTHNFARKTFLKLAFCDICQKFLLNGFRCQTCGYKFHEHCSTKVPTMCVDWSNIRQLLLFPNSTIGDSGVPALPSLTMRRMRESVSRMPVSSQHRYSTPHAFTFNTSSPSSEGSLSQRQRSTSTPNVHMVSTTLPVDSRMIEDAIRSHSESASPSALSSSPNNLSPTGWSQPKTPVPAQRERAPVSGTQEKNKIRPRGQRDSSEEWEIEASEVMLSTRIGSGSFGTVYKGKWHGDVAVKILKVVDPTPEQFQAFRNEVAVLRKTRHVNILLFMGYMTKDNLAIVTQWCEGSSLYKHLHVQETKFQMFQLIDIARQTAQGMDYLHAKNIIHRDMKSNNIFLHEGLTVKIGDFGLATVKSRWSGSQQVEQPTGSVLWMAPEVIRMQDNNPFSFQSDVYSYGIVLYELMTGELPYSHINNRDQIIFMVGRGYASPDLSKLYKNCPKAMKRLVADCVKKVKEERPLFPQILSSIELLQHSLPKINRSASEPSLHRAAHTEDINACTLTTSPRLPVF
Chain of C-Raf FL (P63104 whole entry partner): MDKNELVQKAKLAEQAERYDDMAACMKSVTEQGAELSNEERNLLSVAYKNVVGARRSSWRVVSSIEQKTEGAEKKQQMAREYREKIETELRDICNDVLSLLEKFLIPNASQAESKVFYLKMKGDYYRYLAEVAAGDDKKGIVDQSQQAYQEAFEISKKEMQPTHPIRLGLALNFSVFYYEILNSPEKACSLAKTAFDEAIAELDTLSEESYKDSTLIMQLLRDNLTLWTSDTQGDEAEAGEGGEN

The target of the test is C-Raf FL (Homo sapiens (Human), UniProt P04049, Y340E/Y341E). Put plainly: In vitro Raf activity determination (Alpha Screen, phospho-MEK), C-Raf FL (full length, Y340E/Y341E). It is filed as biochemical. To be noted: ATP 1 μM; 60 min pre-incubation; 1 hour reaction; column head does not say FL or TR. An outline of the steps:
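Sf9-expressed C-Raf incubated with biotinylated kinase-dead MEK1 (K97R) in 50 mM Tris pH 7.5, 15 mM MgCl2, 0.01% BSA, 1 mM DTT with compound, 60 min at room temperature. Phospho-MEK detected by anti-p-MEK AlphaScreen luminescence; IC50 by non-linear regression.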
Broadly, the IC50 is the concentration needed to halve the response being measured. `Cc1ncc(NC(=O)c2cccc(C(F)(F)F)c2)cc1-c1cc(N2CCOC2=O)nc(C2(O)CCOCC2)c1` [Example 301, N-(2′-(4-hydroxytetrahydro-2H-pyran-4-yl)-2-methyl-6′-(2-oxooxazolidin-3-yl)-[3,4′-bipyridin]-5-yl)-3-(trifluoromethyl) benzamide] registered an IC50 of 0.951 nM.

Take `Cc1ncc(NC(=O)c2ccnc(C(C)(C)F)c2)cc1-c1cccc(C2COC2)c1` [Example 1, 2-(2-fluoropropan-2-yl)-N-(6-methyl-5-(3-(oxetan-3-yl)phenyl)pyridin-3-yl)isonicotinamide]: the IC50 amounted to 1 nM.

In turn, `Cc1ncc(NC(=O)c2cccc(C(F)(F)F)c2)cc1-c1cc(C2(F)COC2)c(=O)n(CCO)c1` [Example 46, N-(5′-(3-fluorooxetan-3-yl)-1′-(2-hydroxyethyl)-2-methyl-6′-oxo-1′,6′-dihydro-[3,3′-bipyridin]-5-yl)-3-(trifluoromethyl)benzamide] displayed an IC50 of 51.5 nM.

As to `Cc1ccc(NC(=O)c2cc(C(F)(F)F)c(Cl)cn2)cc1-c1cc(OCCO)nc(C2CCOCC2)c1` [Example 266, 5-chloro-N-(3-(2-(2-hydroxyethoxy)-6-(tetrahydro-2H-pyran-4-yl)pyridin-4-yl)-4-methylphenyl)-4-(trifluoromethyl) picolinamide], the IC50 turned out to be 2 nM. This IC50 lies about 26-fold lower than the previous one.

In turn, `CCOc1ncc(-c2cc(NC(=O)c3ccnc(C(C)(C)F)c3)ccc2C)cc1C1(O)CCOC1` (stereo not drawn) [Example 295, N-(3-(6-ethoxy-5-(3-hydroxytetra-hydrofuran-3-yl)pyridin-3-yl)-4-methylphenyl)-2-(2-fluoropropan-2-yl)isonicotinamide] registered an IC50 of 1 nM.

Regarding `Cc1ccc(NC(=O)c2cc(Cl)ccn2)cc1-c1cc(OC[C@H](O)CO)nc(C2CCOCC2)c1` [Example 278, (R)-4-chloro-N-(3-(2-(2,3-dihydroxypropoxy)-6-(tetrahydro-2H-pyran-4-yl)pyridin-4-yl)-4-methylphenyl) picolinamide], half-maximal inhibition (IC50) was put at 0.05 nM.

As to `Cc1ccc(NC(=O)c2cc(C(F)(F)F)ccn2)cc1-c1cc(OCCO)nc(C2(CF)CCOCC2)c1` [Example 214, N-(3-(2-(4-(fluoromethyl)tetrahydro-2H-pyran-4-yl)-6-(2-hydroxyethoxy)pyridin-4-yl)-4-methylphenyl)-4-(trifluoromethyl) picolinamide], the IC50 was determined as 0.3 nM. Against the preceding compound, the IC50 is about 6-fold higher.

`CCOc1nnc(-c2cc(NC(=O)c3cc(C(F)(F)F)c(Cl)cn3)ccc2C)cc1C1CCOCC1` [Example 228, 5-chloro-N-(3-(6-ethoxy-5-(tetrahydro-2H-pyran-4-yl)pyridazin-3-yl)-4-methylphenyl)-4-(trifluoromethyl) picolinamide] registered an IC50 of 0.06 nM.

For `Cc1ccc(NC(=O)c2ccnc(C(C)(F)F)c2)cc1-c1cc(C2(O)COC2)cc(C2(F)COC2)c1` [Example 136, 2-(1,1-difluoroethyl)-N-(3′-(3-fluorooxetan-3-yl)-5′-(3-hydroxyoxetan-3-yl)-6-methyl-[1,1′-biphenyl]-3-yl)isonicotinamide], the IC50 was 0.177 nM. This IC50 lies about 2.9-fold higher than the previous one.

`Cc1ccc(NC(=O)c2cc(C(F)(F)F)ncn2)cc1-c1cc(OC[C@H](O)CO)nc(C2CCOCC2)c1` [Example 276, (R)-N-(3-(2-(2,3-dihydroxypropoxy)-6-(tetrahydro-2H-pyran-4-yl)pyridin-4-yl)-4-methylphenyl)-6-(trifluoromethyl) pyrimidine-4-carboxamide] yielded an IC50 of 0.06 nM.

For the compound `Cc1ccc(NC(=O)c2ccnc(C(F)(F)F)c2)cc1-c1cc(C2CCOCC2)nc(N2CCC(O)CC2)c1` [Example 187, N-(3-(2-(4-hydroxypiperidin-1-yl)-6-(tetrahydro-2H-pyran-4-yl)pyridin-4-yl)-4-methylphenyl)-2-(trifluoromethyl) isonicotinamide], the IC50 was 0.684 nM. This IC50 is about 11-fold higher than that of the compound before.

Regarding `Cc1ccc(NC(=O)c2cc(C(F)(F)F)ccn2)cc1-c1cc(OC[C@@H](O)CO)nc(C2CCOCC2)c1` [Example 284], the midpoint of inhibition, the IC50, lay at 0.2 nM. This IC50 lies about 3.4-fold lower than the previous one.

In turn, `Cc1ccc(NC(=O)c2ccnc(C(F)(F)F)c2)cc1-c1cc(OCCO)nc(C2(F)CCOCC2)c1` [Example 306, N-(3-(2-(4-fluorotetrahydro-2H-pyran-4-yl)-6-(2-hydroxy-ethoxy)pyridin-4-yl)-4-methyl-phenyl)-2-(trifluoromethyl) isonicotinamide] yielded an IC50 of 0.83 nM. Against the preceding compound, the IC50 is about 4.1-fold higher.

`Cc1ccc(NC(=O)c2ccnc(C(C)(F)F)c2)cc1-c1cc(OCCO)nc(C2CCOCC2)c1` [Example 269, 2-(1,1-difluoroethyl)-N-(3-(2-(2-hydroxyethoxy)-6-(tetrahydro-2H-pyran-4-yl)pyridin-4-yl)-4-methylphenyl) isonicotinamide]: the IC50 was 0.03 nM.

As to `CCC(F)(F)c1cc(C(=O)Nc2cnc(C)c(-c3cc(NCCO)nc(C4CCOCC4)c3)c2)ccn1` [Example 182, 2-(1,1-difluoropropyl)-N-(2′-((2-hydroxyethyl)amino)-2-methyl-6′-(tetrahydro-2H-pyran-4-yl)-[3,4′-bipyridin]-5-yl) isonicotinamide], half-maximal inhibition (IC50) was put at 0.951 nM.

As for `CCOc1ncc(-c2cc(NC(=O)c3cccc(C(F)(F)F)c3)cnc2C)cc1C1(C#N)CCOC1` (stereo not drawn) [Example 171, N-(5′-(3-cyanotetrahydrofuran-3-yl)-6′-ethoxy-2-methyl-[3,3′-bipyridin]-5-yl)-3-(trifluoromethyl) benzamide], the IC50 is 1 nM.

The compound `CCOc1nnc(-c2cc(NC(=O)c3ccnc(C(C)(F)F)c3)ccc2C)cc1C1CCOCC1` [Example 225, 2-(1,1-difluoroethyl)-N-(3-(6-ethoxy-5-(tetrahydro-2H-pyran-4-yl)pyridazin-3-yl)-4-methylphenyl) isonicotinamide] came in with an IC50 of 0.02 nM.

`Cc1ccc(NC(=O)c2ccnc(C(C)(C)C#N)c2)cc1-c1cc(OCCO)nc(C2CCOCC2)c1` [Example 270, 2-(2-cyanopropan-2-yl)-N-(3-(2-(2-hydroxyethoxy)-6-(tetrahydro-2H-pyran-4-yl)pyridin-4-yl)-4-methylphenyl) isonicotinamide] gave an IC50 of 0.09 nM.

`CCOc1nnc(-c2cc(NC(=O)c3ccnc(C(C)(C)F)c3)cnc2C)cc1C1CCOCC1` [Example 233, N-(5-(6-ethoxy-5-(tetrahydro-2H-pyran-4-yl)pyridazin-3-yl)-6-methylpyridin-3-yl)-2-(2-fluoropropan-2-yl) isonicotinamide] registered an IC50 of 2 nM.

Turning to `Cc1ccc(NC(=O)c2cc(C(F)(F)F)ccn2)cc1-c1cc(OCCO)nc(C2CCOCC2O)c1` (single isomer, unassigned) [Example 248], it took 0.7 nM to reach half-maximal inhibition (IC50).

The compound `COc1cc(C(=O)Nc2ccc(C)c(-c3cc(OCCO)nc(C4CCOCC4)c3)c2)ncn1` [Example 267, N-(3-(2-(2-hydroxyethoxy)-6-(tetrahydro-2H-pyran-4-yl)pyridin-4-yl)-4-methylphenyl)-6-methoxypyrimidine-4-carboxamide] gave an IC50 of 0.005 nM.

Turning to `Cc1ncc(NC(=O)c2ccnc(C(C)(C)C#N)c2)cc1-c1cc(C2(O)COC2)cc(C2(F)COC2)c1` [Example 143, 2-(2-cyanopropan-2-yl)-N-(5-(3-(3-fluorooxetan-3-yl)-5-(3-hydroxyoxetan-3-yl)phenyl)-6-methylpyridin-3-yl)isonicotinamide], half-maximal inhibition (IC50) was put at 4.36 nM. Against the preceding compound, the IC50 is about 870-fold higher.

In turn, `Cc1ccc(NC(=O)c2ccnc(C(F)(F)F)c2)cc1-c1cc(C2CCOCC2)nc(N2CCC(C)(N)CC2)c1` [Example 321, N-(3-(2-(4-amino-4-methylpiperidin-1-yl)-6-(tetrahydro-2H-pyran-4-yl)pyridin-4-yl)-4-methylphenyl)-2-(trifluoromethyl)isonicotinamide] showed an IC50 of 0.09 nM.

For `CCOc1ncc(-c2cc(NC(=O)c3cccc(C(F)(F)F)c3)cnc2C)cc1C1(CO)CCOC1` (stereo not drawn) [Example 290, N-(6′-ethoxy-5′-(3-(hydroxymethyl)tetrahydrofuran-3-yl)-2-methyl-[3,3′-bipyridin]-5-yl)-3-(trifluoromethyl) benzamide], the IC50 came out at 2 nM.

With `Cc1ccc(NC(=O)c2cc(C(F)(F)F)ccn2)cc1-c1cc2c(c(C3CCOCC3)c1)NC(=O)C(C)(CO)O2` (stereo not drawn) [Example 192, N-(3-(2-(hydroxymethyl)-2-methyl-3-oxo-5-(tetrahydro-2H-pyran-4-yl)-3,4-dihydro-2H-benzo [b][1,4]oxazin-7-yl)-4-methylphenyl)-4-(trifluoromethyl) picolinamide], the IC50 was 0.3 nM.

Take `CCOc1ncc(-c2cc(NC(=O)c3cccc(C(F)(F)F)c3)cnc2C)cc1C1(F)CCOC1` (stereo not drawn) [Example 297, N-(6′-ethoxy-5′-(3-fluorotetrahydro-furan-3-yl)-2-methyl-[3,3′-bipyridin]-5-yl)-3-(trifluoro-methyl)benzamide]: the IC50 was determined as 1 nM.

For `Cc1ccc(NC(=O)c2ccnc(C(F)(F)F)c2)cc1-c1cc(C2CCOCC2)c(N(C)CCO)nn1` [Example 308], it took 0.5 nM to reach half-maximal inhibition (IC50).

As for `CCOc1ncc(-c2cc(NC(=O)c3ccnc(C(C)(C)F)c3)cnc2C)cc1C1(O)CCOC1` (stereo not drawn) [Example 296, N-(6′-ethoxy-5′-(3-hydroxytetrahydro-furan-3-yl)-2-methyl-[3,3′-bipyridin]-5-yl)-2-(2-fluoropropan-2-yl)isonicotinamide], the IC50 was found to be 4 nM.

Compound `Cc1ccc(NC(=O)c2cnnc(C(F)(F)F)c2)cc1-c1cc(OCCO)nc(C2(C)CCOCC2)c1` [Example 207, N-(3-(2-(2-hydroxyethoxy)-6-(4-methyltetrahydro-2H-pyran-4-yl)pyridin-4-yl)-4-methylphenyl)-6-(trifluoromethyl) pyridazine-4-carboxamide] showed an IC50 of 0.1 nM. This IC50 is about 40-fold lower than that of the compound before.

In the case of `Cc1ccc(NC(=O)c2cc(C(F)(F)F)ccn2)cc1-c1cc(OCCO)nc(C2(C)CCOCC2)c1` [Example 209, N-(3-(2-(2-hydroxyethoxy)-6-(4-methyltetrahydro-2H-pyran-4-yl)pyridin-4-yl)-4-methylphenyl)-4-(trifluoromethyl) picolinamide], the IC50 was 0.2 nM.
